Assay results: ChEMBL document CHEMBL4311994, “New 2,6-diaminopyridines containing a sterically hindered benzylphosphonate moiety in the aromatic core as potential antioxidant and anti-cancer drugs” (Eur J Med Chem, 2019)
The source made the active and inactive calls. No cut-off for these calls is given here.

Key:
[1] = test system: Trichophyton mentagrophytes; assay: Antimicrobial activity against Trichophyton mentagrophytes var. gypseum 1773 by serial dilution method; type: functional
[2] = Antioxidant activity assessed as ABAP free radical scavenging activity by measuring decrease in chemiluminescence intensity at 0.25 to 1 mM by luminescence based assay; type: functional
[3] = Hemolytic activity in human erythrocytes at 50.0 +/- 4.3 uM incubated for 1 hrs by photometric analysis relative to control; type: ADME, cell-based, Erythrocyte; details: read-out: Activity
Bacillus cereus = assay: Antimicrobial activity against Bacillus cereus ATCC 8035 by serial dilution method; type: functional
Pseudomonas aeruginosa = assay: Antimicrobial activity against Pseudomonas aeruginosa ATCC 9027 by serial dilution method; type: functional
[4] = Hemolytic activity in human erythrocytes at 10.0 +/- 0.8 uM incubated for 1 hrs by photometric analysis relative to control; type: ADME, cell-based, Erythrocyte; details: read-out: Activity
Escherichia coli = assay: Antimicrobial activity against Escherichia coli CDC F-50 by serial dilution method; type: functional
Aspergillus niger = assay: Antimicrobial activity against Aspergillus niger BKMF 1119 by serial dilution method; type: functional
[5] = Cytotoxicity against human Chang cells assessed as reduction in cell viability by fluorescence based viable cell counting method
MCF7 = assay: Antiproliferative activity against human MCF7 cells by fluorescence based viable cell counting method; type: functional
Candida albicans = assay: Antimicrobial activity against Candida albicans 855-653 by serial dilution method; type: functional
Staphylococcus aureus = assay: Antimicrobial activity against Staphylococcus aureus ATCC 209P by serial dilution method; type: functional
M-HeLa [6] = assay: Antiproliferative activity against human M-HeLa cells by fluorescence based viable cell counting method; type: functional
[7] = Hemolytic activity in human erythrocytes at 100.0 +/- 7.8 uM incubated for 1 hrs by photometric analysis relative to control; type: ADME, cell-based, Erythrocyte; details: read-out: Activity
M-HeLa [8] = assay: Induction of apoptosis in human M-HeLa cells assessed as effect on Bad expression at IC50 incubated for 24 hrs by luminescence based assay; type: functional, cell-based
M-HeLa [9] = assay: Induction of apoptosis in human M-HeLa cells assessed as increase in caspase 9 expression at IC50 incubated for 24 hrs by luminescence based assay relative to control; type: functional
M-HeLa [10] = assay: Induction of apoptosis in human M-HeLa cells assessed as increase in JNK expression at IC50 incubated for 24 hrs by luminescence based assay; type: functional, cell-based
M-HeLa [11] = assay: Induction of apoptosis in human M-HeLa cells assessed as increase in Akt expression at IC50 incubated for 24 hrs by luminescence based assay; type: functional, cell-based
M-HeLa [12] = assay: Induction of apoptosis in human M-HeLa cells assessed as increase in p53 expression at IC50 incubated for 24 hrs by luminescence based assay; type: functional, cell-based
M-HeLa [13] = assay: Induction of apoptosis in human M-HeLa cells assessed as increase in bcl2 expression at IC50 incubated for 24 hrs by luminescence based assay; type: functional, cell-based
M-HeLa [14] = assay: Induction of apoptosis in human M-HeLa cells assessed as increase in caspase 8 expression at IC50 incubated for 24 hrs by luminescence based assay; type: functional, cell-based
PC-3 = assay: Antiproliferative activity against human PC3 cells by fluorescence based viable cell counting method; type: functional
A549 = assay: Antiproliferative activity against human A549 cells by fluorescence based viable cell counting method; type: functional
[15] = Homo sapiens, MCF7, read-out: IC50
[16] = Homo sapiens, M-HeLa, read-out: IC50

SMILES | MIC [1] [µM] | Activity [2] | hemolysis at 1 h, 50 uM [3] [%] | MIC (Bacillus cereus) [µM] | MIC (Pseudomonas aeruginosa) [µM] | hemolysis at 1 h, 10 uM [4] [%] | MIC (Escherichia coli) [µM] | MIC (Aspergillus niger) [µM] | IC50 ([5]; Homo sapiens, read-out: IC50) [µM] | IC50 (MCF7; [15]) [µM] | MIC (Candida albicans) [µM] | MIC (Staphylococcus aureus) [µM] | IC50 (M-HeLa [6]; [16]) [µM] | hemolysis at 1 h, 100 uM [7] [%] | further results
COP(=O)(OC)C(c1cc(C(C)(C)C)c(O)c(C(C)(C)C)c1)c1ccc(N)cc1N (centres undefined) | > 500 | Active | 0 | > 500 | > 500 | 0 | > 500 | > 500 | > 100 | > 100 | > 500 | > 500 | 45.3 | 0 | 
CCCOP(=O)(OCCC)C(c1cc(C(C)(C)C)c(O)c(C(C)(C)C)c1)c1ccc(N)nc1N (centres undefined) |  | Active |  |  |  |  |  |  | 28.1 | 32.3 |  |  | 11.1 |  | 
CC(C)(C)c1cc(C(c2ccc(N)nc2N)P(=O)(Oc2ccccc2)Oc2ccccc2)cc(C(C)(C)C)c1O (centres undefined) | > 500 | Active | 0.5 | > 500 | > 500 | 0 | > 500 | > 500 | 52 | 16 | > 500 | > 500 | 7.4 | 1.9 | Activity (M-HeLa [8]): inactive; fold change (FC) (M-HeLa [9]): 2; Activity (M-HeLa [10]): Active; Activity (M-HeLa [11]): Active; Activity (M-HeLa [12]): Active; Activity (M-HeLa [13]): Active; Activity (M-HeLa [14]): inactive
CC(C)(C)C1=CC(=CP(=O)(Oc2ccccc2)Oc2ccccc2)C=C(C(C)(C)C)C1=O |  | Active |  |  |  |  |  |  | 17 | 38.4 |  |  | 14.3 |  | 
COP(=O)(OC)C(c1cc(C(C)(C)C)c(O)c(C(C)(C)C)c1)c1ccc(N)nc1N (centres undefined) | > 500 | Active | 0 | > 500 | > 500 | 0 | > 500 | > 500 | > 100 | 31 | > 500 | > 500 | 16.1 | 0 | Activity (PC-3): inactive; Activity (A549): inactive
CC(C)OP(=O)(OC(C)C)C(c1cc(C(C)(C)C)c(O)c(C(C)(C)C)c1)c1ccc(N)nc1N (centres undefined) | > 500 | Active | 0 | > 500 | > 500 | 0 | > 500 | > 500 | > 100 | 21.8 | > 500 | > 500 | 38 | 0.3 | 
COP(=O)(Cc1cc(C(C)(C)C)c(O)c(C(C)(C)C)c1)OC |  | Active | 0 |  |  | 0 |  |  | > 100 | > 100 |  |  | 26 | 0 | 
COP(=O)(C=C1C=C(C(C)(C)C)C(=O)C(C(C)(C)C)=C1)OC |  | Active |  |  |  |  |  |  | 24.1 | > 100 |  |  | 17.2 |  | 
CC(C)OP(=O)(Cc1cc(C(C)(C)C)c(O)c(C(C)(C)C)c1)OC(C)C |  | Active |  |  |  |  |  |  | 96 | 68.2 |  |  | 30 |  | 
CCOP(=O)(OCC)C(c1cc(C(C)(C)C)c(O)c(C(C)(C)C)c1)c1ccc(N)cc1N (centres undefined) | > 500 | Active | 0 | > 500 | > 500 | 0 | > 500 | > 500 | 54.9 | 68.2 | > 500 | > 500 | 39 | 0 | 
COc1cccc2c1C(=O)c1c(O)c3c(c(O)c1C2=O)C[C@@](O)(C(=O)CO)C[C@@H]3O[C@H]1C[C@H](N)[C@H](O)[C@H](C)O1 [DOXORUBICIN] |  |  |  |  |  |  |  |  | 1.3 |  |  |  | 3 |  | 
CC(C)(C)c1cc(C(c2ccc(N)cc2N)P(=O)(Oc2ccccc2)Oc2ccccc2)cc(C(C)(C)C)c1O (centres undefined) | > 500 | Active | 0.9 | > 500 | > 500 | 0 | > 500 | > 500 |  |  | > 500 | > 500 |  | 1.9 | IC50 [5]: Nd(Toxic); IC50 (MCF7; mcf7): Nd(Toxic); IC50 (M-HeLa [6]; m-hela): Nd(Toxic)
CC(C)(C)c1cc(CP(=O)(Oc2ccccc2)Oc2ccccc2)cc(C(C)(C)C)c1O |  | Active |  |  |  |  |  |  | 40 | > 100 |  |  | 15.6 |  | 
CC(C)OP(=O)(C=C1C=C(C(C)(C)C)C(=O)C(C(C)(C)C)=C1)OC(C)C |  | Active |  |  |  |  |  |  | 22.4 | 66 |  |  | 10.1 |  | 
CC/C(=C(\c1ccccc1)c1ccc(OCCN(C)C)cc1)c1ccccc1 [TAMOXIFEN] |  |  |  |  |  |  |  |  | 42.1 |  |  |  |  |  | 
CC(C)OP(=O)(OC(C)C)C(c1cc(C(C)(C)C)c(O)c(C(C)(C)C)c1)c1ccc(N)cc1N (centres undefined) | > 500 | Active |  | > 500 | > 500 |  | > 500 | > 500 |  |  | > 500 | > 500 |  |  | 
CCOP(=O)(OCC)C(c1cc(C(C)(C)C)c(O)c(C(C)(C)C)c1)c1ccc(N)nc1N (centres undefined) | > 500 | Active | 0 | > 500 | > 500 | 0 | > 500 | > 500 | > 100 | 34.2 | > 500 | > 500 | 17.1 | 0 | 
